Key:
[1] = tested on: SUM159 tumour masses; test: Ex vivo mammosphere forming assay on SUM159 tumour masses; type: cell-based, human
[2] = tested on: 4T1-luc cells; test: Growth of 4T1-luc cells in the mammary fat pad of Balb-c mice; type: in vivo, mouse; settings: 2DG once a day i.p. combined with 4 cycles of FMD
[3] = tested on: SUM159 xenografts; test: Growth of SUM159 xenografts in NOD scid gamma (NSG) mice; settings: agent combined with FMD cycles, compared with FMD or drug alone
[4] = tested on: 4T1 tumour masses (CD44highCD24low subpopulation); test: CD44CD24 flow cytometry of 4T1 tumour masses; type: in vivo, mouse; settings: 2DG combined with FMD
Procedure: Cells were harvested and washed in PBS 1% BSA and pellets were resuspended in blocking buffer (PBS 10% BSA) and incubated for 30 min at 4° C. light protected. After a wash in PBS 1% BSA, cells were incubated with antibodies solution (200 μl/1×10^6 cells) for 45 min at 4° C. […] SUM159 samples were analysed by flow cytometry with Attune NxT flow cytometer and data were processed by Kaluza analysis software (Beckman coulter, version 2.0). 4T1 samples were analysed by flow cytometry with FACSCalibur (BD) and data were processed by FlowJo software.

[5] = tested on: SUM159 tumour cells derived from in vivo xenografts; test: Limiting dilution assay in recipient NSG mice; set-up: species or system human
[6] = tested on: 4T1 cells; test: In vitro sphere forming assay, 4T1 cells under CTR/STS; type: cell-based, mouse; settings: STS (0.5 g/l glucose, 1% FBS), 48 h; agent added (8-Br-cAMP; glucose 1 g/l)
[7] = tumour masses from mice treated with agent combined with FMD cycles
[8] = tumour masses from mice treated with drug under AL diet

| Compound | number of ex vivo mammospheres (sphere formation) [1, 7] | number of ex vivo mammospheres (sphere formation) [1, 8] | tumor progression [2] | tumor progression / anti-tumor activity [3] | CSCs (CD44 and CD24 expression) [4] | time tumor formation was prevented ([5]; donor mice 2DG + FMD, 1,000 cells dilution level) | mouse survival in the limiting dilution assay ([5]; donor mice treated with 2DG + FMD) | in vitro sphere formation [6] |
| --- | --- | --- | --- | --- | --- | --- | --- | --- |
| O=CC[C@@H](O)[C@H](O)[C@H](O)CO [2DG, 2-Deoxy-D-Glucose] | decreasing the number of mammospheres derived by tumor masses, even after a multiple serial propagation | did not have any effect under AL conditions | potentiated the effect of FMD both in delaying tumor progression | potentiated the effect of FMD both in delaying tumor progression | reducing CSCs | more than 150 days | potentiated the effect of FMD in increasing mouse survival compared to 2DG and FMD alone |  |
| Nc1ncnc2c1nc(Br)n2[C@@H]1O[C@@H]2COP(=O)(O)O[C@H]2[C@H]1O [8-Br-cAMP, 8-Bromoadenosine 3′,5′-cyclic mono-phosphate] |  |  |  |  |  |  |  | reversed fasting/STS-dependent spheres reduction |
| O=C(Oc1cccc(F)c1OC(=O)c1cccc(O)c1)c1cccc(O)c1 [WZB117] |  | mimicked the effect of FMD on reducing the number of spheres formation |  | did not potentiate the anti-tumor activity of FMD |  |  |  |  |
| OC[C@H]1OC(O)[C@H](O)[C@@H](O)[C@@H]1O (stereo partly drawn) [glucose] | completely rescued the FMD-dependent reduction of mammospheres |  |  | partially reversed the FMD effects on tumor progression |  |  |  | reversed the STS effect on 4T1 sphere formation |
| CN(C)C(=N)N=C(N)N [metformin] |  | reduced tumor growth and sphere formation |  | did not show any additive or synergistic antitumor effect when combined with the FMD |  |  |  |  |
